The term IC50 denotes the concentration that inhibits the measured activity by half.

Data on 17 molecules can be found in US12410171B2, “Tropomyosin receptor kinase (TRK) degradation compounds and methods of use” (Cullgen (Shanghai), Inc., priority 2020, dated 2025).

The structures appear in SMILES notation. Read-outs that look alike come from different tables or passages of the source. Bounds are passed on as bounds.

One test has as its system KM12 cells. Put plainly: KM12 cell viability (CellTiter-Glo). Type of test: cell-based. The settings on record: Homo sapiens. In a few lines: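 Three-day exposure of KM12 cells (5000/well, RPMI 1640 with 10% FBS, 37 °C, 5% CO2) to compound dilution series, 3-fold over 8 or 11 points (top 1000 nM in the 8-point format) or 2-fold over 12. CellTiter-Glo readout, with IC50 fitted by nonlinear least-squares regression.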
(In general: ATP-based viability assays read luminescence as a measure of living cells.)

The next test addresses T1, TPM3-TRKA fusion protein (Homo sapiens, UniProt P04629).
T1 construct: The resulted chimeric proteins always retain the kinase domain of TRK proteins; TPM3 (fusion partner, N-terminal part of tropomyosin alpha-3, P06753); endogenous in cells; host or cells: KM12 colon cancer cells; the other entry of the earlier key: TPM3 (P06753, Tropomyosin alpha-3 chain)
Put plainly: TPM3-TRKA fusion protein levels in KM12 cells (Western blot). Type of test: cell-based. The settings on record: read-out: Degradation (at 10 nM). In short, it runs like this:
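TPM3-TRKA levels were assessed by Western blot with chemiluminescent detection and band densitometry, after SDS-PAGE of BCA-normalized RIPA lysates. Before lysis, KM12 cells received DMSO, compounds or matched control compounds at concentrations including 0.1, 1, 10 and 100 nM and 0.4–30 nM. Exposures lasted 4 h, 8–16 h or 16 h.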
Background: A western blot detects proteins with antibodies after separation by electrophoresis.

The mark [1] stands for this setting: 72 h, KM12 cell viability, CellTiter-Glo, three days treatment, read-out: IC50.
Setting [2] is: 16 h, TPM3-TRKA degradation in KM12 cells at 10 nM compound, category of percentage degradation.

T1 sequence (P04629 with tags, fused parts or gaps): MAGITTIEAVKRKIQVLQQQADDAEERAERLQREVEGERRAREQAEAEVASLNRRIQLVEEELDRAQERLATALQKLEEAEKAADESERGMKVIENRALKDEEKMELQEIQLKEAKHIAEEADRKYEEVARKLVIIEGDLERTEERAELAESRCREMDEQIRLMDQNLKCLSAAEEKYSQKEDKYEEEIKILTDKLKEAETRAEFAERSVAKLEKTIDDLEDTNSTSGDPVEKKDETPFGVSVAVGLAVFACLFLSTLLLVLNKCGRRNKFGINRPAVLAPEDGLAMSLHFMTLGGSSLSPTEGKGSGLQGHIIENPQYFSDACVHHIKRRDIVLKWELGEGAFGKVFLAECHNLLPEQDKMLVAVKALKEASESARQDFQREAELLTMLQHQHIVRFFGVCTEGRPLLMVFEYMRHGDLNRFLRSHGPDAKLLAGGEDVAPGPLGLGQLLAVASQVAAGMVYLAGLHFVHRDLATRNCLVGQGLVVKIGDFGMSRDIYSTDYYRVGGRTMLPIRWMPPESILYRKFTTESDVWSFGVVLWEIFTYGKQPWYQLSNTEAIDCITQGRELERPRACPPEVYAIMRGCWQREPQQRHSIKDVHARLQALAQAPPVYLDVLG

With `O=C(CN1CCN(c2cccc(-c3cnc4ccc(N5CCC[C@@H]5c5cccc(F)c5)nn34)n2)CC1)NCCOCCNc1ccc2c(c1)C(=O)N(C1CCC(=O)NC1=O)C2=O` (stereo partly drawn) [TR-135, N-(2-(2-((2-(2,6-dioxopiperidin-3-yl)-1,3-dioxoisoindolin-5-yl)amino)ethoxy)ethyl)-2-(4-(6-(6-((R)-2-(3-fluorophenyl)pyrrolidin-1-yl)imidazo[1,2-b]pyridazin-3-yl)pyridin-2-yl)piperazin-1-yl)acetamide], in the test with KM12 cells (setting [1]), the IC50 was 0.9 nM. Moreover, the percent degradation of TPM3-TRKA protein at 0.01 µM at TPM3-TRKA fusion protein (setting [2]) is > 80%.
With `O=C1CCC(N2C(=O)c3ccc(NCCOCCOCCOCCOCCC(=O)N4CCN(c5ccc(C(=O)Nc6n[nH]c7ccc(Cc8cc(F)cc(F)c8)cc67)c(NC6CCOCC6)c5)CC4)cc3C2=O)C(=O)N1` (stereo not shown) [TR-140, N-(5-(3,5-Difluorobenzyl)-1H-indazol-3-yl)-4-(4-(1-((2-(2,6-dioxopiperidin-3-yl)-1,3-dioxoisoindolin-5-yl)amino)-3,6,9,12-tetraoxapentadecan-15-oyl)piperazin-1-yl)-2˜ ((tetrahydro-2H-pyran-4-yl)amino)benzamide], the IC50 in the test on KM12 cells (setting [1]) came out at 1.6 nM. Besides, the percent degradation of TPM3-TRKA protein at 0.01 µM on TPM3-TRKA fusion protein (setting [2]) is > 80%.
As to `O=C1CCC(N2Cc3cc(NCC(=O)N4CCN(c5cccc(-c6cnc7ccc(N8CCC[C@@H]8c8cccc(F)c8)nn67)n5)CC4)ccc3C2=O)C(=O)N1` (stereo partly drawn) [TR-190, 3-(5-((2-(4-(6-(6-((R)-2-(3-fluorophenyl)pyrrolidin-1-yl)imidazo[1,2-b]pyridazin-3-yl)pyridin-2-yl)piperazin-1-yl)-2-oxoethyl)amino)-1-oxoisoindolin-2-yl)piperidine-2,6-dione], the IC50 in the test with KM12 cells (setting [1]) stood at 8.7 nM. In addition, the percent degradation of TPM3-TRKA protein at 0.01 µM on TPM3-TRKA fusion protein (setting [2]) was > 80%.
As for `O=C1CCC(N2C(=O)c3ccc(CCC(=O)N4CCN(c5cccc(-c6cnc7ccc(N8CCC[C@@H]8c8cccc(F)c8)nn67)n5)CC4)cc3C2=O)C(=O)N1` (stereo partly drawn) [TR-194, 2-(2,6-Dioxopiperidin-3-yl)-5-(3-(4-(6-(6-((R)-2-(3-fluorophenyl)pyrrolidin-1-yl)imidazo[1,2-b]pyridazin-3-yl)pyridin-2-yl)piperazin-1-yl)-3-oxopropyl)isoindoline-1,3-dione], the 50% inhibitory concentration (IC50) in the test on KM12 cells (setting [1]) amounted to 7.4 nM. Further, the percent degradation of TPM3-TRKA protein at 0.01 µM on TPM3-TRKA fusion protein (setting [2]) lay in the range of 50 to 80%.
Regarding `O=C1CCC(N2C(=O)c3ccc(N4CC(C(=O)N5CCN(c6cccc(-c7cnc8ccc(N9CCC[C@@H]9c9cccc(F)c9)nn78)n6)CC5)C4)cc3C2=O)C(=O)N1` (stereo partly drawn) [TR-211, 2-(2,6-dioxopiperidin-3-yl)-5-(3-(4-(6-(6-((R)-2-(3-fluorophenyl)pyrrolidin-1-yl)imidazo[1,2-b]pyridazin-3-yl)pyridin-2-yl)piperazine-1-carbonyl)azetidin-1-yl)isoindoline-1,3-dione], the IC50 in the test with KM12 cells (setting [1]) is 2 nM. Further, the percent degradation of TPM3-TRKA protein at 0.01 µM on TPM3-TRKA fusion protein (setting [2]) is > 80%.
The corresponding values for `Cn1c(=O)n(C2CCC(=O)NC2=O)c2ccc(NCCCN3CCN(c4cccc(-c5cnc6ccc(N7CCC[C@@H]7c7cccc(F)c7)nn56)n4)CC3)cc21` (stereo partly drawn) [TR-221, 3-[5-[3-[4-[6-[6-[(2R)-2-(3-fluorophenyl)pyrrolidin-1-yl]imidazo[1,2-b]pyridazin-3-yl]-2-pyridyl]piperazin-1-yl]propylamino]-3-methyl-2-oxo-benzimidazol-1-yl]piperidine-2,6-dione] are 7.8 nM and > 80%.
Regarding `O=C1CCC(N2C(=O)c3ccc(N4CCC(CN5CCN(c6cccc(-c7cnc8ccc(N9CCC[C@@H]9c9cccc(F)c9)nn78)n6)CC5)C4)cc3C2=O)C(=O)N1` (stereo partly drawn) [TR-225, 2-(2,6-dioxopiperidin-3-yl)-5-(3-((4-(6-(6-((R)-2˜ (3-fluorophenyl)pyrrolidin-1-yl)imidazo[1,2-b]pyridazin-3-yl)pyridin-2-yl)piperazin-1-yl)methyl)pyrrolidin-1-yl)isoindoline-1,3-dione], the IC50 with KM12 cells (setting [1]) is 8.4 nM. For the same molecule, the percent degradation of TPM3-TRKA protein at 0.01 µM on TPM3-TRKA fusion protein (setting [2]) is > 80%.
Take `O=C1CCC(n2c(=O)n(CCN3CCN(c4cccc(-c5cnc6ccc(N7CCC[C@@H]7c7cccc(F)c7)nn56)n4)CC3)c3ccccc32)C(=O)N1` (stereo partly drawn) [TR-227, 3-(3-(2-(4-(6-(6-((R)-2-(3-Fluorophenyl)pyrrolidin-1-yl)imidazo[1,2-b]pyridazin-3-yl)pyridin-2-yl)piperazin-1-yl)ethyl)-2-oxo-2,3-dihydro-1H-benzo[d]imidazol-1-yl)piperidine-2,6-dione]: in the test on KM12 cells (setting [1]), the IC50 stood at 23.6 nM. On TPM3-TRKA fusion protein (setting [2]), the percent degradation of TPM3-TRKA protein at 0.01 µM was in the range of 50 to 80%.
Regarding `O=C1CCC(n2c(=O)n(CCCN3CCN(c4cccc(-c5cnc6ccc(N7CCC[C@@H]7c7cccc(F)c7)nn56)n4)CC3)c3ccccc32)C(=O)N1` (stereo partly drawn) [TR-228, 3-(3-(3-(4-(6-(6-((R)-2-(3-fluorophenyl)pyrrolidin-1-yl)imidazo[1,2-b]pyridazin-3-yl)pyridin-2-yl)piperazin-1-yl)propyl)-2-oxo-2,3-dihydro-1H-benzo[d]imidazol-1-yl)piperidine-2,6-dione], the IC50 in the test on KM12 cells (setting [1]) came to 56.3 nM. For the same molecule, the percent degradation of TPM3-TRKA protein at 0.01 µM at TPM3-TRKA fusion protein (setting [2]) lay within 50 to 80%.
In the case of `O=C1CCC(N2C(=O)c3ccc(NC(=O)CN4CCN(c5cccc(-c6cnc7ccc(N8CCC[C@@H]8c8cccc(F)c8)nn67)n5)CC4)cc3C2=O)C(=O)N1` (stereo partly drawn) [TR-233, N-(2-(2,6-dioxopiperidin-3-yl)-1,3-dioxoisoindolin-5-yl)-2-(4-(6-(6-((R)-2-(3-fluorophenyl)pyrrolidin-1-yl)imidazo[1,2-b]pyridazin-3-yl)pyridin-2-yl)piperazin-1-yl)acetamide], in the test on KM12 cells (setting [1]), the concentration for half-maximal inhibition (IC50) worked out at 5 nM. In addition, the percent degradation of TPM3-TRKA protein at 0.01 µM on TPM3-TRKA fusion protein (setting [2]) is > 80%.
Taken in the same sequence, the figures for `O=C1CCC(N2C(=O)Cc3c(NCCN4CCN(c5cccc(-c6cnc7ccc(N8CCC[C@@H]8c8cccc(F)c8)nn67)n5)CC4)cccc32)C(=O)N1` (stereo partly drawn) [TR-236, 3-(4-((2-(4-(6-(6-((R)-2-(3-Fluorophenyl)pyrrolidin-1-yl)imidazo[1,2-b]pyridazin-3-yl)pyridin-2-yl)piperazin-1-yl)ethyl)amino)-2-oxoindolin-1-yl)piperidine-2,6-dione] were 99.2 nM and < 50%.
`O=C1CCC(N2C(=O)c3ccc(CN4CC(N5CCN(c6cccc(-c7cnc8ccc(N9CCC[C@@H]9c9cccc(F)c9)nn78)n6)CC5)C4)cc3C2=O)C(=O)N1` (stereo partly drawn) [TR-237, 2-(2,6-dioxopiperidin-3-yl)-5-((3-(4-(6-(6-((R)-2-(3-fluorophenyl)pyrrolidin-1-yl)imidazo[1,2-b]pyridazin-3-yl)pyridin-2-yl)piperazin-1-yl)azetidin-1-yl)methyl)isoindoline-1,3-dione]: the IC50 in the test with KM12 cells (setting [1]) turned out to be 138 nM. Moreover, the percent degradation of TPM3-TRKA protein at 0.01 µM on TPM3-TRKA fusion protein (setting [2]) is > 80%.
`Cn1c(=O)n(C2CCC(=O)NC2=O)c2cccc(C#CCN3CCN(c4cccc(-c5cnc6ccc(N7CCC[C@@H]7c7cccc(F)c7)nn56)n4)CC3)c21` (stereo partly drawn) [TR-238, 3-(4-(3-(4-(6-(6-((R)-2-(3-Fluorophenyl)pyrrolidin-1-yl)imidazo[1,2-b]pyridazin-3-yl)pyridin-2-yl)piperazin-1-yl)prop-1-yn-1-yl)-3-methyl-2-oxo-2,3-dihydro-1H-benzo[d]imidazol-1-yl)piperidine-2,6-dione] returned an IC50 in the test on KM12 cells (KM12, 72 h) of 16.2 nM. The percent degradation of TPM3-TRKA protein at 0.01 µM on TPM3-TRKA fusion protein (KM12, 16 h) was > 80%.
Turning to `Cn1c(=O)n(C2CCC(=O)NC2=O)c2cccc(C#CCCN3CCN(c4cccc(-c5cnc6ccc(N7CCC[C@@H]7c7cccc(F)c7)nn56)n4)CC3)c21` (stereo partly drawn) [TR-239, 3-(4-(4-(4-(6-(6-((R)-2-(3-Fluorophenyl)pyrrolidin-1-yl)imidazo[1,2-b]pyridazin-3-yl)pyridin-2-yl)piperazin-1-yl)but-1-yn-1-yl)-3-methyl-2-oxo-2,3-dihydro-1H-benzo[d]imidazol-1-yl)piperidine-2,6-dione], the concentration for half-maximal inhibition (IC50) with KM12 cells (setting [1]) came to 45.9 nM. In addition, at TPM3-TRKA fusion protein (setting [2]), the percent degradation of TPM3-TRKA protein at 0.01 µM was > 80%.
The corresponding values for `Cn1c(=O)n(C2CCC(=O)NC2=O)c2cccc(CCCN3CCN(c4cccc(-c5cnc6ccc(N7CCC[C@@H]7c7cccc(F)c7)nn56)n4)CC3)c21` (stereo partly drawn) [TR-240, 3-(4-(3-(4-(6-(6-((R)-2-(3-fluorophenyl)pyrrolidin-1-yl)imidazo[1,2-b]pyridazin-3-yl)pyridin-2-yl)piperazin-1-yl)propyl)-3-methyl-2-oxo-2,3-dihydro-1H-benzo[d]imidazol-1-yl)piperidine-2,6-dione] are 16.1 nM and > 80%.
On to `Cn1c(=O)n(C2CCC(=O)NC2=O)c2cccc(CCCCN3CCN(c4cccc(-c5cnc6ccc(N7CCC[C@@H]7c7cccc(F)c7)nn56)n4)CC3)c21` (stereo partly drawn) [TR-241, 3-(4-(4-(4-(6-(6-((R)-2˜ (3-fluorophenyl)pyrrolidin-1-yl)imidazo[1,2-b]pyridazin-3-yl)pyridin-2-yl)piperazin-1-yl)butyl)-3-methyl-2-oxo-2,3-dihydro-1H-benzo[d]imidazol-1-yl)piperidine-2,6-dione], for which 6.1 nM corresponded to half-maximal inhibition in the test on KM12 cells (KM12, 72 h) (IC50). Besides, the percent degradation of TPM3-TRKA protein at 0.01 µM at TPM3-TRKA fusion protein (KM12, 16 h) is > 80%.
For the molecule `Cn1c(=O)n(C2CCC(=O)NC2=O)c2cccc(OCCN3CCN(c4cccc(-c5cnc6ccc(N7CCC[C@@H]7c7cccc(F)c7)nn56)n4)CC3)c21` (stereo partly drawn) [TR-244, 3-(4˜ (2-(4-(6-(6-((R)-2-(3-Fluorophenyl)pyrrolidin-1-yl)imidazo[1,2-b]pyridazin-3-yl)pyridin-2-yl)piperazin-1-yl)ethoxy)-3-methyl-2-oxo-2,3-dihydro-1H-benzo[d]imidazol-1-yl)piperidine-2,6-dione], in the test with KM12 cells (setting [1]), the IC50 is 298 nM. The percent degradation of TPM3-TRKA protein at 0.01 µM on TPM3-TRKA fusion protein (setting [2]) is < 50%.
